The values that follow come from patent publication US8334298B2, “Treatment or prevention of ovarian hyperstimulation syndrome (OHSS) using a dopamine agonist” (Ferring International Center S.A., priority 2005, dated 2012).

In experiment [1] the test system is women with PCOS and hyperprolactinemia. The conditions noted are these: during ovarian induction with GnRH agonist, FSH and hCG; cited from earlier work.
Experiment [2] deals with patient with pituitary adenoma and OHSS. The conditions noted are these: cabergoline 0.5 mg twice per week for three weeks; cited from earlier work.
The test system of another experiment is OHSS rats. As to the kind of experiment: Dose response of quinagolide on vascular permeability in OHSS rats (Example 4). Type of experiment: in vivo, Wistar rats. Particulars: cabergoline 150 ug/kg oral (positive control); single rat; 48-56 h after hCG; listed as Cb. How it is done: Inducing OHSS manifestations. A total of 96 female immature Wistar rats (Harlan Iberica, Sant Feliu de Codina, Barcelona, SPAIN), weighing from 42-48 grams at the beginning of these experiments (day 22), were used to carry out the studies disclosed in Examples 4 and 5. They were injected subcutaneously (s.c) with 10 IU of Pregnant Mare's Serum Gonadotropin (PMSG) (Sigma) for 4 consecutive days (days 22-25), followed by administered intraperitoneally (i.p.) with 30 IU of hCG on the fifth day (day 26) in order to induce OHSS clinical manifestations.
Measuring vascular permeability (VP). VP was used as an index to estimate and compare the degree of development of the illness. VP was measured in all animals 48-56 hours after hCG administration, following methodology previously described (Gomez et al., supra). Briefly, 0.2 ml Evans Blue dye, 0.05 M, was injected through the femoral vein. After 30 minutes, the peritoneal cavity was irrigated with 5 ml saline, pH 6, 22° C., and massaged for 30 seconds to recover extravasated dye. The peritoneal fluid was recovered in 13 ml tubes containing 0.1 ml NaOH. The tubes were centrifuged at 900×g for 12 minutes to avoid protein interference. The supernatant was filtered through 0.22 um filters in order to eliminate ascitic protein/fibrin mucus which could interfere in the posterior measurements. Finally the absorbance of the extravasated dye was measured at 595 nm using a spectrophotometer. Average and average deviations in each group (see below) were calculated. VP was expressed as μg extravasated Evans Blue dye/100 g body weight in each animal.
A total of 70 rats were used for this study. All 70 rats were administered PMSG/hCG to induce OHSS symptoms, as described above. Quinagolide (batch no. 1010003004; supplied by Ferring Labs) was administered to 56 rats. The 56 rats that received quinagolide were used as a dose response test group. […] Cabergoline (Dostinex®) was administered to 6 rats as a positive control. The specific details of the dosing regimen for each group is as follows:
Vehicle control group (quinagolide 0 μg/kg) (n=8). Eight rats were implanted with prolactin placebo pellets, 5 days release, between 10:00 to 11:00 on day 26, just following hCG injection (see General Procedures, above). Six hours after pellet implantation, the rats in this group were orally administered vehicle solution (1:6 alcohol in water mixture) (without quinagolide). They received another oral vehicle administration of vehicle solution 24 hours later. Experimental groups (quinagolide at 0.1, 0.3, 1, 3, 10, 25, 50 μg/kg/day to 7 test groups of rats) (n=8 in each test group). The rats in these groups were implanted with prolactin pellets, 5 days release, between 10:00 to 11:00 on day 26, just following hCG injection (see General Procedures, above). […] In this manner, the desired 0.1, 0.3, 1, 3, 10, 25, 50 μg/kg doses to be assayed were achieved. Twenty four hours later, the rats in this group were administered with another dose of the same amounts of quinagolide. Positive (cabergoline) control group (n=6). These six rats were implanted with prolactin pellets, 5 days release, between 10:00 to 11:00 .m on day 26, just following hCG injection. […] Twenty four hours later, the rats in this group were administered with another dose of the same amount of cabergoline. […] Reconstitution and dilution process to reach appropriate quinagolide doses for oral administration. Appropriate doses were prepared fresh just prior to being administered (on day 26). A single quinagolide vial, containing approximately 2.30-2.30 mg quinagolide, was employed for each single set of animals. For each solution, approximately 2.30-2.30 mg quinagolide was diluted in a vehicle solution (1:6 alcohol:water mixture) to achieve a stock concentration of 100 μg quinagolide per ml solution. […]

Experiment [3] concerns women at risk of developing moderate-severe early OHSS. Briefly: Prospective, randomized, double blind study of cabergoline in oocyte donors at risk of OHSS (Example 6). Type of experiment: in vivo. Here is the method:
Materials and Methods. Example 5 is a prospective, randomized and double blind study of 54 oocyte donors in whom 20-30 follicles greater than 12 mm developed, and from whom more than 20 oocytes were retrieved. Immediately after hCG administration, patients were divided in two groups based on a computer randomization: 1) the study group (n=29) received 0.5 mg oral cabergoline daily for eight days; the control group (n=25) received one tablet of placebo for the same eight days. The patients were monitored every 48 hours from the day of hCG administration (day 0) up through day 8. The presence of ascites was defined as a pocket of peritoneal fluid greater than 9 cm^2, with the patient in litotomy position seen on vaginal ultrasound. Also, regular blood parameters and serum PRL levels were recorded.

The structures appear in SMILES notation. Where “and” joins values, the source holds several entries; their conditions need not be identical. Equal values may be shown once.

On to `C=CCN1C[C@H](C(=O)N(CCCN(C)C)C(=O)NCC)C[C@@H]2c3cccc4[nH]cc(c34)C[C@H]21` [Cabergoline, cabergoline], for which, in experiment [1], the “risk of OHSS” value is “reduce the risk of OHSS”. In addition, the prolactin levels entry in experiment [2] was “normalized prolactin levels”. In the experiment with OHSS rats, the “Absorbance at 595 nm” value is 0.356 and 0.034 and 0.1 (2×) and 0.293; the “μg EB per 100 g body weight” value was 21.56 μg EB per 100 g body weight and 2.118 μg EB per 100 g body weight and 6.507 μg EB per 100 g body weight and 6.229 μg EB per 100 g body weight and 17.99 μg EB per 100 g body weight; the “μg Evans Blue (Abs * 4360)” value is 1552.16 μg and 148.24 μg and 436 μg (2×) and 1277.48 μg. Moreover, the “Haemoglobin day 4” value in experiment [3] (0.5 mg oral cabergoline daily for eight days, n=29, mean ± SEM, p 0.006 vs control) came out at 12.7 ± 1.2 g/dL. Also, in experiment [3] (0.5 mg oral cabergoline daily for eight days, n=29, mean ± SEM, p 0.01 vs control), the “Haemoglobin day 6” value came to 12.9 ± 1.2 g/dL. Moreover, the “Free fluid area day 6” value in experiment [3] (0.5 mg oral cabergoline daily for eight days, n=29, mean ± SEM, p 0.03 vs control) amounted to 8.8 ± 1.7 cm2. In experiment [3] (0.5 mg oral cabergoline daily for eight days, n=29, mean ± SEM, p 0.04 vs control), the “Hematocrit day 6” value turned out to be 38.9 ± 3.9%. Also, the Ascites % in experiment [3] (0.5 mg oral cabergoline daily for eight days, 7/29 patients, ascites = pocket of peritoneal fluid greater than 9 cm^2, p 0.01 vs control) is listed as 24.1 7/29%. In addition, in experiment [3] (0.5 mg oral cabergoline daily, days 2, 4, 6 and 8 as compared to controls, p<0.0001), the “Serum PRL levels” value is “significantly lower”.
